Data on three molecules can be found in patent US20230190811A1, “COMPOSITIONS AND METHODS FOR USE IN THE TREATMENT OF CANCER” (Poseida Therapeutics, Inc., priority 2020, published 2023).

Usually NOAEL stands for the highest dose or exposure tested at which no adverse effect was seen.

The subject of series [1] is human pan T-cells with iC9 safety switch. Put plainly: iC9 safety switch test: viability of modified T cells incubated with AP1903 (7-AAD flow cytometry). The series is classed as cell-based. An excerpt:
Human pan T-cells were nucleofected using an Amaxa 4D nucleofector with one of four piggyBac transposons. Modified T cells receiving the “mock” condition were nucleofected with an empty piggyBac transposon. Modified T cells received either a piggyBac transposon containing a therapeutic agent alone (a sequence encoding a CARTyrin) or a piggyBac transposon containing an integrated iC9 sequence and a therapeutic agent (a sequence encoding a CARTyrin). To test the iC9 safety switch, each of the four modified T cells were incubated for 24 hours with 0, 0.1 nM, 1 nM, 10 nM, 100 nM or 1000 nM AP1903 (an induction agent for […]). Viability was assessed by flow cytometry using 7-aminoactinomycin D (7-AAD), a fluorescent intercalator, as a marker for cells undergoing apoptosis.
(A flow cytometer gives signals particle by particle.)

The nature of series [2]: GLP repeat dose intravenous toxicity study of rimiducid in rats. To be noted: rat, in vivo. From the text: In vitro and in vivo studies have been conducted by Poseida with rimiducid and the iC9-based safety switch-containing CAR-T cell product P-BCMA-101 with similar results. A GLP repeat dose intravenous toxicity study in rats has recently been conducted by Poseida. […] (see Rimiducid Investigator's Brochure for further detail).

The test system of series [3] is cells. The conditions noted are these: cited from earlier work.
Series [4] relates to T cells carrying an iC9-based safety switch gene. The conditions noted are these: cited from earlier work.
Details of series [5]: plasma level as % of maximal concentration: dose or concentration left out as unconfirmed. To be noted: cited from earlier work.
Series [6] concerns relapsed/refractory MM. To be noted: standard of care; cited from earlier work.
For series [7], the target named is T1, B-cell maturation antigen (BCMA), human, expressed on cells (human, UniProt Q02223 1-184).
T1 construct: whole, on cells; also called Tumor necrosis factor receptor superfamily member 17 (TNFRSF17)
T1 sequence (looked up): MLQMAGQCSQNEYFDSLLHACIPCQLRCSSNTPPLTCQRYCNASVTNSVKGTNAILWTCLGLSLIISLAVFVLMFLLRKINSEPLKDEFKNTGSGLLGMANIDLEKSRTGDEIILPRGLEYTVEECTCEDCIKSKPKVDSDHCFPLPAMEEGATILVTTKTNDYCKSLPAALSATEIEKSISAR
Put plainly: screen of 4300+ human proteins, each individually expressed in human HEK293 cells. From the text:
The Centyrin-Fc fusion protein was screened for binding against 4300+ human proteins. The vast majority of these human proteins represent cell surface membrane proteins, each individually expressed in human HEK293 cells.

Like-named read-outs stand apart in the source and are kept apart here.

As to `CC[C@H](C(=O)N1CCCC[C@H]1C(=O)O[C@H](CCc1ccc(OC)c(OC)c1)c1cccc(OCC(=O)NCCNC(=O)COc2cccc([C@@H](CCc3ccc(OC)c(OC)c3)OC(=O)[C@@H]3CCCCN3C(=O)[C@@H](CC)c3cc(OC)c(OC)c(OC)c3)c2)c1)c1cc(OC)c(OC)c(OC)c1` (relative stereo) [AP1903, 2-Piperidinecarboxylic acid, 1-[(2S)-1-oxo-2-(3,4,5-trimethoxyphenyl)butyl]-, 1,2-ethanediylbis[imino(2-oxo-2,1-ethanediyl)oxy-3,1-phenylene[(1R)-3-(3,4-dimethoxyphenyl)propylidene]]ester, [2S-[1(R*),2R*[S*[S*[1(R*),2R*]]]]]-(9C1)], the “lowest concentration at which apoptosis is induced” value in series [1] (cells containing iC9 construct, 24 hours incubation) was no more than 0.1 nM. The “shift of cell population to apoptotic quadrant with increasing induction agent” value in series [1] (cells lacking the iC9 construct (CARTyrin only)) is reported as “not observed”. Besides, the toxic effect entry in series [2] is recorded as “No noticeable toxic effect”. The molecule further had an NOAEL in series [2] (repeated (three times) intravenous administration) greater than 15 mg/kg. Moreover, the “amount needed in vitro for effective signaling of cells” value in series [3] was 10 to 100 nM. The “modified T cells eliminated” value in series [4] (0.4 mg/kg 2-hour infusion, within 30 minutes following infusion) is 90%. In addition, the GVHD outcome in series [4] (0.4 mg/kg) is listed as “GVHD completely resolved”. Also, the adverse events entry in series [4] (clinical studies published to date) is on record as “no significant adverse events”. Besides, in series [4] (during the next 24 hours), the “further depletion of modified T cells” value is listed as “further log depletion”. The pharmacokinetics result in series [4] (human, in vivo) is “consistent and linear pharmacokinetics”. In addition, in series [4] (within and above the effective dose range (0.01-1.0 mg/kg)), the toxicity entry is on record as “effectively no toxicity”. Besides, the “plasma levels in relation to dose” value in series [5] (0.01-1.0 mg/kg) was “directly proportional to dose”. The figures for the “plasma level as % of maximal concentration” value in series [5] (2 hours post-dose), in series [5] (10 hours post-dose) and in series [5] were roughly 7%, roughly 1% and “approximately 18%”, respectively. Besides, in series [5] (Phase I study), the well-tolerated doses result was “up to 1 mg/kg”. Further, the safety and tolerability entry in series [5] (all dose levels 0.01-1.0 mg/kg) was “safe and well tolerated at all dose levels”. In series [5] (single dose infused IV over 2 hours, 0.01-1.0 mg/kg dose range), the “mean Cmax” value was 10 to 1275 ng/mL.
As to “daratumumab: recently approved standard of care agent (mAb) for multiple myeloma”, in series [6], the response rate was no more than 30%.

B1: Centyrin-Fc fusion protein (the Centyrin from P-BCMA-101 fused to Fc) (Fc fusion)
chain: MLPAPKNLVVSRITEDSARLSWTAPDAAFDSFPIRYIETLIWGEAIWLDVPGSERSYDLTGLKPGTEYAVVITGVKGGRFSSPLVASFTT
notes: not shown: Fc part, any linker and the order of the parts are not described
Regarding B1, the binding result in series [7] is on record as “binds”.
